Values joined by “and” are separate entries in the source; they are usually repeats but may differ in a detail not shown here. Equal values may be shown once.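 How tested: cells in 96-well plates exposed to compound for 48 hours at five concentrations. Abbreviation: GI50, concentration required for 50% inhibition of growth. At the TGI there is no net growth.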
Experiments:
Experiment in all cases: growth of human tumour cells (NCI), 48 h
M19-MEL melanoma = system: M19-MEL melanoma
SF-539 CNS = system: SF-539 CNS
HOP-18 NSCLC = system: HOP-18 NSCLC
T-47D breast = system: T-47D breast
UACC-257 melanoma = system: UACC-257 melanoma
SNB-19 CNS = system: SNB-19 CNS
HOP-92 NSCLC = system: HOP-92 NSCLC
IGROV1 ovarian = system: IGROV1 ovarian
M14 melanoma = system: M14 melanoma
BT-549 breast = system: BT-549 breast

| SMILES | TGI (M19-MEL melanoma) | TGI (SF-539 CNS) | TGI (HOP-18 NSCLC) | TGI (T-47D breast) | TGI (UACC-257 melanoma) | TGI (SNB-19 CNS) [µM] | TGI (HOP-92 NSCLC) | TGI (IGROV1 ovarian) | TGI (M14 melanoma) | TGI (BT-549 breast) | GI50 (M19-MEL melanoma) [µM] | GI50 (BT-549 breast) [µM] | GI50 (SF-539 CNS) [µM] | GI50 (HOP-18 NSCLC) [µM] | GI50 (T-47D breast) [µM] | GI50 (UACC-257 melanoma) [µM] | GI50 (HOP-92 NSCLC) [µM] | GI50 (IGROV1 ovarian) [µM] | GI50 (M14 melanoma) [µM] |
| --- | --- | --- | --- | --- | --- | --- | --- | --- | --- | --- | --- | --- | --- | --- | --- | --- | --- | --- | --- |
| CC1=CC2=C(OCO1)C(=O)c1ccccc1C2=O | 3.58 µM | 12.8 µM | 27.1 µM | 7.47 µM | 7.29 µM | 34 | 23 µM | 27.6 µM | 8.97 µM | – | – | – | – | – | – | – | – | – | – |
| O=C(OC(C(=O)O)C(OC(=O)c1ccccc1)C(=O)O)c1ccccc1 (stereo not drawn) (tested in a mixture with another compound) | > 100 µM | > 100 µM | 9.71 µM and 84.2 µM | > 100 µM | > 100 µM | > 100 | 55.9 µM | > 100 µM | > 100 µM | 27 µM | – | – | – | – | – | – | – | – | – |
| C=C(C)C(=O)NC(N)=NC#N | 50.2 µM and 166 µM | 73.3 µM and 290 µM | > 57.4 µM and 240 µM | 56.3 µM and 206 µM | > 66.6 µM and 200 µM | 330 | 33.7 µM and 63.1 µM | > 75.1 µM and 309 µM | 47.8 µM and 131 µM | 28.4 µM and 192 µM | 42.8 | 67.9 | 154 | 115 | 57.5 | 69.4 | 26.7 | 168 | 21 |
| N=c1nc(N)c2cc3c(N)nc(=N)c3cc12 | 5.45 µM | 31.5 µM | 41.5 µM | 47.8 µM | 28.1 µM | > 100 | 25.6 µM | > 100 µM | 27.9 µM | 51 µM | – | – | – | – | – | – | – | – | – |
